CCOC(=O)C1=C(C)NC(C)=C(C(=O)OCC)C1
Conditions | solubility (mole fraction)
in 2-butanone, 272.15 K | 0.00182
in 2-butanone, 278.15 K | 0.00274
in 2-butanone, 283.15 K | 0.00382
in 2-butanone, 288.15 K | 0.00525
in 2-butanone, 293.15 K | 0.00717
in 2-butanone, 298.15 K | 0.00965
in 2-butanone, 303.35 K | 0.013
in 2-butanone, 308.25 K | 0.0171
in 2-butanone, 313.15 K | 0.0222
in 2-butanone, 318.15 K | 0.0288
in 2-butanone, 323.65 K | 0.038
in 2-pentanone, 272.15 K | 0.00169
in 2-pentanone, 278.15 K | 0.00255
in 2-pentanone, 283.15 K | 0.00353
in 2-pentanone, 288.15 K | 0.00485
in 2-pentanone, 293.15 K | 0.00657
in 2-pentanone, 298.15 K | 0.00881
in 2-pentanone, 303.35 K | 0.0119
in 2-pentanone, 308.25 K | 0.0155
in 2-pentanone, 313.15 K | 0.0202
in 2-pentanone, 318.15 K | 0.026
in 2-pentanone, 323.65 K | 0.0345
in acetone, 272.15 K | 0.00112
in acetone, 278.15 K | 0.00165
in acetone, 283.15 K | 0.00225
in acetone, 288.15 K | 0.00304
in acetone, 293.15 K | 0.00407
in acetone, 298.15 K | 0.0054
in acetone, 303.35 K | 0.00718
in acetone, 308.25 K | 0.00926
in acetone, 313.15 K | 0.0119
in acetone, 318.15 K | 0.0152
in acetone, 323.65 K | 0.02
in acetonitrile, 272.15 K | 0.000235
in acetonitrile, 278.15 K | 0.000356
in acetonitrile, 283.15 K | 0.000495
in acetonitrile, 288.15 K | 0.000687
in acetonitrile, 293.15 K | 0.000931
in acetonitrile, 298.15 K | 0.00126
in acetonitrile, 303.35 K | 0.0017
in acetonitrile, 308.25 K | 0.00224
in acetonitrile, 313.15 K | 0.00291
in acetonitrile, 318.15 K | 0.0038
in acetonitrile, 323.65 K | 0.00503
in ethanol, 272.15 K | 0.000414
in ethanol, 277.95 K | 0.000587
in ethanol, 283.15 K | 0.000795
in ethanol, 288.15 K | 0.00105
in ethanol, 293.05 K | 0.00137
in ethanol, 298.15 K | 0.00179
in ethanol, 303.15 K | 0.00232
in ethanol, 308.05 K | 0.00294
in ethanol, 312.35 K | 0.00362
in ethanol, 318.15 K | 0.00472
in ethanol, 323.15 K | 0.0059
in ethyl acetate, 272.15 K | 0.00135
in ethyl acetate, 278.15 K | 0.00195
in ethyl acetate, 283.15 K | 0.00261
in ethyl acetate, 288.15 K | 0.00345
in ethyl acetate, 293.15 K | 0.00453
in ethyl acetate, 298.15 K | 0.00588
in ethyl acetate, 303.35 K | 0.00767
in ethyl acetate, 308.25 K | 0.00977
in ethyl acetate, 313.15 K | 0.0123
in ethyl acetate, 318.15 K | 0.0155
in ethyl acetate, 323.65 K | 0.0198
in ethyl formate, 272.15 K | 0.00082
in ethyl formate, 278.15 K | 0.00117
in ethyl formate, 283.15 K | 0.00155
in ethyl formate, 288.15 K | 0.00204
in ethyl formate, 293.15 K | 0.00266
in ethyl formate, 298.15 K | 0.00343
in ethyl formate, 303.35 K | 0.00444
in ethyl formate, 308.25 K | 0.00562
in ethyl formate, 313.15 K | 0.00703
in ethyl formate, 318.15 K | 0.00881
in ethyl formate, 323.65 K | 0.0112
in isobutanol, 272.15 K | 0.000707
in isobutanol, 277.95 K | 0.00106
in isobutanol, 283.15 K | 0.00151
in isobutanol, 288.15 K | 0.00209
in isobutanol, 293.05 K | 0.00283
in isobutanol, 298.15 K | 0.00386
in isobutanol, 303.15 K | 0.00517
in isobutanol, 308.05 K | 0.00684
in isobutanol, 312.35 K | 0.00863
in isobutanol, 318.15 K | 0.0117
in isobutanol, 323.15 K | 0.0152
in isopentanol, 272.15 K | 0.000677
in isopentanol, 277.95 K | 0.000996
in isopentanol, 283.15 K | 0.00139
in isopentanol, 288.15 K | 0.00189
in isopentanol, 293.05 K | 0.00254
in isopentanol, 298.15 K | 0.00341
in isopentanol, 303.15 K | 0.0045
in isopentanol, 308.05 K | 0.00587
in isopentanol, 312.35 K | 0.00738
in isopentanol, 318.15 K | 0.00989
in isopentanol, 323.15 K | 0.0126
in isopropanol, 272.15 K | 0.000462
in isopropanol, 277.95 K | 0.00066
in isopropanol, 283.15 K | 0.000904
in isopropanol, 288.15 K | 0.0012
in isopropanol, 293.05 K | 0.00158
in isopropanol, 298.15 K | 0.00208
in isopropanol, 303.15 K | 0.00269
in isopropanol, 308.05 K | 0.00344
in isopropanol, 312.35 K | 0.00424
in isopropanol, 318.15 K | 0.00557
in isopropanol, 323.15 K | 0.00702
in methanol, 272.15 K | 0.000246
in methanol, 277.95 K | 0.000355
in methanol, 283.15 K | 0.000486
in methanol, 288.15 K | 0.000655
in methanol, 293.05 K | 0.000865
in methanol, 298.15 K | 0.00114
in methanol, 303.15 K | 0.0015
in methanol, 308.05 K | 0.00192
in methanol, 312.35 K | 0.00238
in methanol, 318.15 K | 0.00315
in methanol, 323.15 K | 0.004
in methyl acetate, 272.15 K | 0.00103
in methyl acetate, 278.15 K | 0.00146
in methyl acetate, 283.15 K | 0.00192
in methyl acetate, 288.15 K | 0.00251
in methyl acetate, 293.15 K | 0.00326
in methyl acetate, 298.15 K | 0.0042
in methyl acetate, 303.35 K | 0.00541
in methyl acetate, 308.25 K | 0.00679
in methyl acetate, 313.15 K | 0.00848
in methyl acetate, 318.15 K | 0.0106
in methyl acetate, 323.65 K | 0.0134
in n-butanol, 272.15 K | 0.000605
in n-butanol, 277.95 K | 0.000859
in n-butanol, 283.15 K | 0.00116
in n-butanol, 288.15 K | 0.00154
in n-butanol, 293.05 K | 0.00201
in n-butanol, 298.15 K | 0.00262
in n-butanol, 303.15 K | 0.00338
in n-butanol, 308.05 K | 0.0043
in n-butanol, 312.35 K | 0.00528
in n-butanol, 318.15 K | 0.00691
in n-butanol, 323.15 K | 0.00862
in n-pentanol, 272.15 K | 0.000647
in n-pentanol, 277.95 K | 0.000925
in n-pentanol, 283.15 K | 0.00126
in n-pentanol, 288.15 K | 0.00169
in n-pentanol, 293.05 K | 0.00221
in n-pentanol, 298.15 K | 0.00292
in n-pentanol, 303.15 K | 0.00378
in n-pentanol, 308.05 K | 0.00483
in n-pentanol, 312.35 K | 0.00597
in n-pentanol, 318.15 K | 0.00787
in n-pentanol, 323.15 K | 0.00988
in n-propanol, 272.15 K | 0.000513
in n-propanol, 277.95 K | 0.000735
in n-propanol, 283.15 K | 0.000998
in n-propanol, 288.15 K | 0.00133
in n-propanol, 293.05 K | 0.00174
in n-propanol, 298.15 K | 0.00229
in n-propanol, 303.15 K | 0.00296
in n-propanol, 308.05 K | 0.0038
in n-propanol, 312.35 K | 0.00468
in n-propanol, 318.15 K | 0.00613
in n-propanol, 323.15 K | 0.00773
in toluene, 272.15 K | 0.00015
in toluene, 278.15 K | 0.00023
in toluene, 283.15 K | 0.000323
in toluene, 288.15 K | 0.000449
in toluene, 293.15 K | 0.000618
in toluene, 298.15 K | 0.000839
in toluene, 303.35 K | 0.00114
in toluene, 308.25 K | 0.00151
in toluene, 313.15 K | 0.00198
in toluene, 318.15 K | 0.0026
in toluene, 323.65 K | 0.00346

Reference: BigSolDB 2.1
